In ChEMBL document CHEMBL6087461, “Cell-Permeable Peptide Inhibitors of the p53-hDM2 Interaction via Foldamer Helix Mimicry and Bis-Thioether Stapling” (J Med Chem, 2025):
Starred links: 1 amine or outer side, 2 acyl side, 3 side chain; linkers in the order of their positions; H or OH if unused. Positions of bridges follow the written chain, without caps; N, C: chain ends. Residues, ends and D or L forms follow the SMILES beside them. *: point of attachment. X12 = CC(C)[C@@H](CNC(N)=O)NC(=O)NC[C@H](C)NC(=O)NC[C@H](CSCc1ccc(C[*:1])cc1)N[*:2]; X1 = CC(C)[C@@H](CNC(N)=O)NC(=O)NC[C@H](C)NC(=O)NC[C@H](CSCCCCCC[*:1])N[*:2]; X6 = CC(C)[C@@H](CNC(N)=O)NC(=O)NC[C@H](CSCCCCCC[*:1])NC(=O)NC[C@H](C)N[*:2]; X8 = C[C@@H](CNC(N)=O)NC(=O)NC[C@H](C)NC(=O)NC[C@H](CSC/C=C/C[*:1])N[*:2]; X3 = CC(C)[C@@H](CNC(N)=O)NC(=O)NC[C@H](C)NC(=O)NC[C@H](C)N*; CH2CH2 = C(C[*:2])[*:1]; X7 = C(CC[*:1])CC[*:2]; X4 = C(C[*:1])C[*:2]

Tests used:
[1] = target: Tumour suppressor protein p53/Mdm4 (Homo sapiens) (UniProt P04637+O15151); test: PROTAC activity at human DMX/p53 extracted from Escherichia coli interaction at 100 nM by measuring inhibition of interaction by time-resolved fluorescence energy transfer (TRFRET) detection method relative to control; type: protein assay
Tumour suppressor protein p53/Mdm4 (Homo sapiens), sequence (O15151 whole entry, looked up): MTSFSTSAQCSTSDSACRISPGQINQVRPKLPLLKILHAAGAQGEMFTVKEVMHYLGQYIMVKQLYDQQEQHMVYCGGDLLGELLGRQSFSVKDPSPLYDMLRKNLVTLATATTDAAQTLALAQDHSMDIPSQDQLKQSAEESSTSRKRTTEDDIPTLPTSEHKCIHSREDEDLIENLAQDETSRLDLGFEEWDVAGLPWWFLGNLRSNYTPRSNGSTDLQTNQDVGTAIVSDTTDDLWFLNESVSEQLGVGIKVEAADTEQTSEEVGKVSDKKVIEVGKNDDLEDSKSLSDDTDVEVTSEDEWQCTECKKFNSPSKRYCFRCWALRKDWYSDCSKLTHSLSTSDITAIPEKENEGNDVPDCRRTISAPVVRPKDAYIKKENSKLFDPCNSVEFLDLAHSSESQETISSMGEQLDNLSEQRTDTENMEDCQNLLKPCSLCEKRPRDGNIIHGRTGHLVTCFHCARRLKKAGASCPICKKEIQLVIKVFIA
Tumour suppressor protein p53/Mdm4 (Homo sapiens), sequence (P04637 whole entry, looked up): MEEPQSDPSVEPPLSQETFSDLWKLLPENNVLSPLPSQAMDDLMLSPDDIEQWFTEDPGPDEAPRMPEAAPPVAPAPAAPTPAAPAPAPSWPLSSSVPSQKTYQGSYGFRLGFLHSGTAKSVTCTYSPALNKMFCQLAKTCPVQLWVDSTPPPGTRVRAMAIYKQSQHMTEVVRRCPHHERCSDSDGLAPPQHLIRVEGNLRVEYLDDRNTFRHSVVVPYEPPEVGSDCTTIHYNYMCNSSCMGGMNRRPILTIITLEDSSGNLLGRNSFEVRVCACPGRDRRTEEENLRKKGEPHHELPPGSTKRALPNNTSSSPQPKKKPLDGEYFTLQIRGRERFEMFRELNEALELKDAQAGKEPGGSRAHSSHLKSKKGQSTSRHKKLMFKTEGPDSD

[2] = target: Tumour suppressor p53/oncoprotein Mdm2 (Homo sapiens) (UniProt P04637+Q00987); test: PROTAC activity at human MDM2/p53 extracted from Escherichia coli interaction by measuring inhibition of interaction at 100 nM by time-resolved fluorescence energy transfer (TRFRET) detection method relative to control; type: protein assay
Tumour suppressor p53/oncoprotein Mdm2 (Homo sapiens), sequence (P04637 whole entry, looked up): as above
Tumour suppressor p53/oncoprotein Mdm2 (Homo sapiens), sequence (Q00987 whole entry, looked up): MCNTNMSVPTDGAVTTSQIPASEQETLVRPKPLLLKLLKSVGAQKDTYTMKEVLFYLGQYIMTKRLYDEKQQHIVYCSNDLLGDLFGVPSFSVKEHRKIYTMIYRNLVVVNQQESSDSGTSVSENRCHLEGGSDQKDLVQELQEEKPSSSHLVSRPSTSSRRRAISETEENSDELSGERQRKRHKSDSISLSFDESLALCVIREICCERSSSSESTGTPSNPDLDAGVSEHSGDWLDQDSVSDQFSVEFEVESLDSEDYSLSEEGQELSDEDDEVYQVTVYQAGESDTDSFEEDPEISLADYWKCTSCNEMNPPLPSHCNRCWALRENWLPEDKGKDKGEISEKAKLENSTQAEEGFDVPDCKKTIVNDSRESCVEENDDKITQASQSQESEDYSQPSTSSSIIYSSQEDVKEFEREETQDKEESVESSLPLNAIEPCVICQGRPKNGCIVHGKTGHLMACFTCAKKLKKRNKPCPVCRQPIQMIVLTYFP

[3] = target: Tumour suppressor protein p53/Mdm4 (Homo sapiens, UniProt O15151); test: PROTAC activity at human DMX/p53 extracted from Escherichia coli interaction by measuring inhibition of interaction by time-resolved fluorescence energy transfer (TRFRET) detection method; type: protein assay
Tumour suppressor protein p53/Mdm4, sequence (P04637 whole entry): as the sequence (P04637 whole entry, looked up) above
Tumour suppressor protein p53/Mdm4, sequence (O15151 whole entry): as the sequence (O15151 whole entry, looked up) above

[4] = PROTAC activity at human DM2/p53 extracted from Escherichia coli interaction by measuring inhibition of interaction by time-resolved fluorescence energy transfer (TRFRET) detection method
[5] = Permeability in human HeLa cells transfected with Halo-GFP-Mito assessed as accumulation in cytosol measured after 4 hrs incubation by chloroalkane penetration assay; type: ADME, subcellular

Row | Structure (SMILES) | inhibition [1] [%] | inhibition [2] [%] | IC50 [3] [nM] | IC50 [4] [nM] | EC50 [5] [nM]
1 | CC(C)[C@@H](CNC(N)=O)NC(=O)NC[C@H](C)NC(=O)NC[C@@H]1CSCc2ccc(cc2)CSC[C@H](NC(=O)[C@H](Cc2ccccc2)NC(=O)[C@H](CO)NC(=O)[C@@H](N)[C@@H](C)O)C(=O)N[C@@H](CCC(=O)O)C(=O)N[C@@H](Cc2ccc(O)cc2)C(=O)N[C@@H](Cc2c[nH]c3ccccc23)C(=O)N1 (H-TSFCEYW; linker 4-C via X12) | -4 | 21 | – | – | –
2 | CC(C)[C@@H](CNC(N)=O)NC(=O)NC[C@@H]1CSCCCCCCSC[C@H](NC(=O)[C@H](C)NC(=O)[C@H](Cc2ccccc2)NC(=O)[C@H](CO)NC(=O)[C@@H](N)[C@@H](C)O)C(=O)N[C@@H](Cc2ccc(O)cc2)C(=O)N[C@@H](Cc2c[nH]c3ccccc23)C(=O)N[C@@H](C)CNC(=O)N1 (H-TSFACYW; linker 5-C via X6) | 11 | 86 | 196000 | 33.1 | –
3 | N[C@@H](Cc1c[nH]c2ccccc12)C(=O)O [TRYPTOPHAN] | – | – | – | – | 87
4 | CC(C)[C@@H](CNC(N)=O)NC(=O)NC[C@H](C)NC(=O)NC[C@H](C)NC(=O)[C@H](Cc1c[nH]c2ccccc12)NC(=O)[C@H](Cc1ccc(O)cc1)NC(=O)[C@H](CCC(=O)O)NC(=O)[C@H](C)NC(=O)[C@H](Cc1ccccc1)NC(=O)[C@H](CO)NC(=O)[C@@H](NC(=O)[C@H](CCCNC(=N)N)NC(=O)[C@H](CCCNC(=N)N)NC(=O)[C@@H](N)CCCNC(=N)N)[C@@H](C)O (H-RRRTSFAEYW-X3) | 81 | 95 | – | – | –
5 | CC(C)[C@@H](CNC(N)=O)NC(=O)NC[C@H](C)NC(=O)NC[C@H](C)NC(=O)[C@H](Cc1c[nH]c2ccccc12)NC(=O)[C@H](Cc1ccc(O)cc1)NC(=O)[C@H](CCC(=O)O)NC(=O)[C@H](C)NC(=O)[C@H](Cc1ccccc1)NC(=O)[C@H](CO)NC(=O)[C@@H](N)[C@@H](C)O (H-TSFAEYW-X3) | 61 | 97 | 82000 | 23.8 | –
6 | C[C@@H](CNC(N)=O)NC(=O)NC[C@H](C)NC(=O)NC[C@@H]1CSC/C=C/CSC[C@H](NC(=O)[C@H](Cc2ccccc2)NC(=O)[C@H](CO)NC(=O)[C@@H](N)[C@@H](C)O)C(=O)N[C@@H](CCC(=O)O)C(=O)N[C@@H](Cc2ccc(O)cc2)C(=O)N[C@@H](Cc2c[nH]c3ccccc23)C(=O)N1 (H-TSFCEYW; linker 4-C via X8) | 57 | 82 | – | – | –

Other lines, results leading:

Row | inhibition [1] [%] | inhibition [2] [%] | IC50 [3] [nM] | IC50 [4] [nM] | EC50 [5] [nM] | Structure (SMILES)
7 | -3 | 42 | – | – | – | CC(C)[C@@H](CNC(N)=O)NC(=O)NC[C@H](C)NC(=O)NC[C@@H]1CSCCCCCCSC[C@H](NC(=O)[C@H](Cc2ccccc2)NC(=O)[C@H](CO)NC(=O)[C@@H](N)[C@@H](C)O)C(=O)N[C@@H](C)C(=O)N[C@@H](Cc2ccc(O)cc2)C(=O)N[C@@H](Cc2c[nH]c3ccccc23)C(=O)N1 (H-TSFCAYW; linker 4-C via X1)
8 | 39 | 47 | – | – | – | CC(C)[C@@H](CNC(N)=O)NC(=O)NC[C@H](C)NC(=O)NC[C@H](C)NC(=O)[C@H](Cc1c[nH]c2ccccc12)NC(=O)[C@H](Cc1ccc(O)cc1)NC(=O)[C@@H]1CSCCSC[C@H](N)C(=O)N[C@@H](CO)C(=O)N[C@@H](Cc2ccccc2)C(=O)N[C@@H](C)C(=O)N1 (H-CSFACYW-X3; linker 1-5 via CH2CH2)
9 | 16 | 58 | – | – | – | CC(C)[C@@H](CNC(N)=O)NC(=O)NC[C@H](C)NC(=O)NC[C@H](C)NC(=O)[C@H](Cc1c[nH]c2ccccc12)NC(=O)[C@H](Cc1ccc(O)cc1)NC(=O)[C@@H]1CSCCCCCSC[C@H](N)C(=O)N[C@@H](CO)C(=O)N[C@@H](Cc2ccccc2)C(=O)N[C@@H](C)C(=O)N1 (H-CSFACYW-X3; linker 1-5 via X7)
10 | 12 | 30 | – | – | – | CC(C)[C@@H](CNC(N)=O)NC(=O)NC[C@H](C)NC(=O)NC[C@H](C)NC(=O)[C@H](Cc1c[nH]c2ccccc12)NC(=O)[C@H](Cc1ccc(O)cc1)NC(=O)[C@@H]1CSCCCCCSC[C@H](NC(=O)[C@@H](N)[C@@H](C)O)C(=O)N[C@@H](Cc2ccccc2)C(=O)N[C@@H](C)C(=O)N1 (H-TCFACYW-X3; linker 2-5 via X7)
11 | 20 | 41 | 763000 | 109 | – | CC(C)[C@@H](CNC(N)=O)NC(=O)NC[C@H](C)NC(=O)NC[C@H](C)NC(=O)[C@H](Cc1c[nH]c2ccccc12)NC(=O)[C@H](Cc1ccc(O)cc1)NC(=O)[C@@H]1CSCCCSC[C@H](NC(=O)[C@@H](N)[C@@H](C)O)C(=O)N[C@@H](Cc2ccccc2)C(=O)N[C@@H](C)C(=O)N1 (H-TCFACYW-X3; linker 2-5 via X4)
